In ChEMBL document CHEMBL1201862, “PubChem BioAssay data set” (2004):
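How tested: cells in 96-well plates exposed to compound for 48 hours at five concentrations. At the GI50, growth is halved.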 Calls of active or inactive are those of the source. Cut-off read from the data, not from the text of the source: active = GI50 up to about 1.1 µM and inactive = higher.

Columns and labels:
Experiment in all cases: NCI tumour cell line growth inhibition, 48 h
Hs-578T = test system: Hs-578T
U-251 = test system: U-251
MDA-MB-231 = test system: MDA-MB-231
HT-29 = test system: HT-29
NCI-H226 = test system: NCI-H226
NCI-H23 = test system: NCI-H23
SK-OV-3 = test system: SK-OV-3
ACHN = test system: ACHN
A549 = test system: A549
CAKI-1 = test system: CAKI-1
SW-620 = test system: SW-620
HOP-92 = test system: HOP-92
A498 = test system: A498
Malme-3M = test system: Malme-3M
IGROV-1 = test system: IGROV-1
NCI/ADR-RES = test system: NCI/ADR-RES
NCI-H522 = test system: NCI-H522
EKVX = test system: EKVX
MCF7 = test system: MCF7
TK-10 = test system: TK-10
SF-539 = test system: SF-539
OVCAR-8 = test system: OVCAR-8
M14 = test system: M14
COLO 205 = test system: COLO 205
LOX IMVI = test system: LOX IMVI
K562 = test system: K562
SK-MEL-5 = test system: SK-MEL-5
UACC-257 = test system: UACC-257
SNB-75 = test system: SNB-75
CCRF-CEM = test system: CCRF-CEM
UO-31 = test system: UO-31
786-0 = test system: 786-0
SK-MEL-28 = test system: SK-MEL-28
UACC-62 = test system: UACC-62
SK-MEL-2 = test system: SK-MEL-2
RPMI-8226 = test system: RPMI-8226
HCC 2998 = test system: HCC 2998
DU-145 = test system: DU-145
PC-3 = test system: PC-3
SF-295 = test system: SF-295
MDA-N = test system: MDA-N
SF-268 = test system: SF-268
HCT-15 = test system: HCT-15
HL-60 = test system: HL-60
MDA-MB-435 = test system: MDA-MB-435
SN12C = test system: SN12C
T47D = test system: T47D
KM12 = test system: KM12
RXF 393 = test system: RXF 393
SNB-19 = test system: SNB-19
HCT-116 = test system: HCT-116
OVCAR-5 = test system: OVCAR-5
SR = test system: SR
OVCAR-4 = test system: OVCAR-4
HOP-62 = test system: HOP-62
OVCAR-3 = test system: OVCAR-3
MOLT-4 = test system: MOLT-4
NCI-H460 = test system: NCI-H460

For `CCOC(=O)C1C(C(C)C)C2(C#N)C(=N)OC1(C)C2(C#N)C#N` (stereo unspecified), the GI50 (Hs-578T) was > 100 µM (inactive), the GI50 (U-251) was 82.4 µM (inactive) and the GI50 (MDA-MB-231) was > 100 µM (inactive). The GI50 (HT-29) was 82 µM (inactive), the GI50 (NCI-H226) was 56.4 µM (inactive) and the GI50 (NCI-H23) was 54.5 µM (inactive). For the same molecule, the GI50 (SK-OV-3) was > 100 µM (inactive), the GI50 (ACHN) was > 100 µM (inactive) and the GI50 (A549) was > 100 µM (inactive). The GI50 (CAKI-1) was 2.72 µM (inactive), the GI50 (SW-620) was 62.1 µM (inactive) and the GI50 (HOP-92) was 21.2 µM (inactive). For the same molecule, the GI50 (A498) was > 100 µM (inactive), the GI50 (Malme-3M) was 40.8 µM (inactive) and the GI50 (IGROV-1) was 88.3 µM (inactive). For the same molecule, the GI50 (NCI/ADR-RES) was 45.5 µM (inactive), the GI50 (NCI-H522) was 26 µM (inactive) and the GI50 (EKVX) was 78.3 µM (inactive). The GI50 (MCF7) was 59.4 µM (inactive), the GI50 (TK-10) was > 100 µM (inactive) and the GI50 (SF-539) was > 100 µM (inactive). The GI50 (OVCAR-8) was > 100 µM (inactive), the GI50 (M14) was > 100 µM (inactive) and the GI50 (COLO 205) was 7.46 µM (inactive). The GI50 (LOX IMVI) was 43.3 µM (inactive), the GI50 (K562) was 30.8 µM (inactive) and the GI50 (SK-MEL-5) was 30.5 µM (inactive). For the same molecule, the GI50 (UACC-257) was 54.8 µM (inactive), the GI50 (SNB-75) was 13.3 µM (inactive) and the GI50 (CCRF-CEM) was 47 µM (inactive). For the same molecule, the GI50 (UO-31) was > 100 µM (inactive), the GI50 (786-0) was 54 µM (inactive) and the GI50 (SK-MEL-28) was > 100 µM (inactive). The GI50 (UACC-62) was 88.9 µM (inactive), the GI50 (SK-MEL-2) was 58.9 µM (inactive) and the GI50 (RPMI-8226) was 32.8 µM (inactive). For the same molecule, the GI50 (HCC 2998) was > 100 µM (inactive), the GI50 (DU-145) was > 100 µM (inactive) and the GI50 (PC-3) was > 100 µM (inactive). For the same molecule, the GI50 (SF-295) was > 100 µM (inactive), the GI50 (MDA-N) was 16.2 µM (inactive) and the GI50 (SF-268) was > 100 µM (inactive). The GI50 (HCT-15) was 49.3 µM, the GI50 (HL-60) was 30 µM (inactive) and the GI50 (MDA-MB-435) was 35.3 µM (inactive). For the same molecule, the GI50 (SN12C) was 65.8 µM (inactive), the GI50 (T47D) was 49.7 µM (inactive) and the GI50 (KM12) was > 100 µM (inactive). For the same molecule, the GI50 (RXF 393) was 36.3 µM (inactive), the GI50 (SNB-19) was > 100 µM (inactive) and the GI50 (HCT-116) was 56 µM (inactive). The GI50 (OVCAR-5) was > 100 µM (inactive).
For `Oc1c(Cl)c(Cl)c(O)c(-c2cnc(-c3ncc(-c4c(O)c(Cl)c(Cl)c(O)c4Cl)s3)s2)c1Cl`, the GI50 (Hs-578T) was 15.2 µM (inactive), the GI50 (U-251) was 22.6 µM (inactive) and the GI50 (MDA-MB-231) was 20.7 µM (inactive). The GI50 (HT-29) was 35.6 µM (inactive), the GI50 (NCI-H226) was 3.96 µM (inactive) and the GI50 (NCI-H23) was 19.3 µM (inactive). The GI50 (SR) was 35.6 µM (inactive), the GI50 (SK-OV-3) was 41.2 µM (inactive) and the GI50 (ACHN) was 23.3 µM (inactive). The GI50 (A549) was 29.6 µM (inactive), the GI50 (CAKI-1) was 20.9 µM (inactive) and the GI50 (OVCAR-4) was 80.5 µM (inactive). For the same molecule, the GI50 (SW-620) was 21.4 µM (inactive), the GI50 (HOP-92) was 25 µM (inactive) and the GI50 (Malme-3M) was 29.4 µM (inactive). For the same molecule, the GI50 (IGROV-1) was 16.1 µM (inactive), the GI50 (HOP-62) was 54.2 µM (inactive) and the GI50 (NCI/ADR-RES) was 25.3 µM (inactive). For the same molecule, the GI50 (NCI-H522) was 2.1 µM (inactive), the GI50 (EKVX) was 21.2 µM (inactive) and the GI50 (MCF7) was 18.2 µM (inactive). The GI50 (TK-10) was 26.7 µM (inactive), the GI50 (SF-539) was 24.3 µM (inactive) and the GI50 (OVCAR-8) was 16.7 µM (inactive). For the same molecule, the GI50 (M14) was 19.5 µM (inactive), the GI50 (COLO 205) was 28.6 µM (inactive) and the GI50 (K562) was 34.1 µM (inactive). For the same molecule, the GI50 (SK-MEL-5) was 7.8 µM (inactive), the GI50 (UACC-257) was 29 µM (inactive) and the GI50 (SNB-75) was 28.1 µM (inactive). The GI50 (OVCAR-3) was 21.4 µM (inactive), the GI50 (CCRF-CEM) was 8.53 µM (inactive) and the GI50 (UO-31) was 21.1 µM (inactive). The GI50 (MOLT-4) was > 100 µM (inactive), the GI50 (786-0) was 25.1 µM (inactive) and the GI50 (SK-MEL-28) was 29.6 µM (inactive). The GI50 (UACC-62) was 19.7 µM (inactive), the GI50 (SK-MEL-2) was 18.4 µM (inactive) and the GI50 (NCI-H460) was 30.1 µM (inactive). For the same molecule, the GI50 (HCC 2998) was 36.6 µM (inactive), the GI50 (DU-145) was 49.8 µM (inactive) and the GI50 (PC-3) was 29.4 µM (inactive). For the same molecule, the GI50 (SF-295) was 19.9 µM (inactive), the GI50 (SF-268) was 22 µM (inactive) and the GI50 (HCT-15) was 13.6 µM. For the same molecule, the GI50 (HL-60) was 33.3 µM (inactive), the GI50 (MDA-MB-435) was 21.9 µM (inactive) and the GI50 (SN12C) was 27.4 µM (inactive). For the same molecule, the GI50 (T47D) was 29.9 µM (inactive), the GI50 (KM12) was 29.2 µM (inactive) and the GI50 (RXF 393) was 18.9 µM (inactive). The GI50 (SNB-19) was 27.9 µM (inactive), the GI50 (HCT-116) was 21.1 µM (inactive) and the GI50 (OVCAR-5) was 15.5 µM (inactive).
